Results as given in the NIST ThermoML archive (doi:10.1021/je900414p).

Test: xn = mol fraction of the nth substance listed
Settings: 303.15 K, Liquid

CCOS(=O)(=O)[O-].CCn1cc[n+](C)c1 [1-ethyl-3-methylimidazolium ethyl sulfate] + CCO
mass density [kg/m3]
Settings | 100 kPa | 2500 kPa | 5000 kPa | 10000 kPa | 15000 kPa | 20000 kPa | 25000 kPa | 30000 kPa | 35000 kPa
x1 = 0.05056 | 851.9 | 853.85 | 855.87 | 859.72 | 863.43 | 866.98 | 870.39 | 873.69 | 876.89
x1 = 0.103 | 910.06 | 911.7 | 913.54 | 917.1 | 920.52 | 923.82 | 927 | 930.09 | 933.1
x1 = 0.1247 | 931.25 | 932.93 | 934.69 | 938.12 | 941.44 | 944.64 | 947.74 | 950.74 | 953.67
x1 = 0.2126 | 1000.1 | 1001.68 | 1003.26 | 1006.36 | 1009.37 | 1012.29 | 1015.12 | 1017.88 | 1020.58
x1 = 0.2919 | 1048.63 | 1049.46 | 1050.92 | 1053.74 | 1056.51 | 1059.18 | 1061.79 | 1064.33 | 1066.82
x1 = 0.3185 | 1061.99 | 1063.29 | 1064.7 | 1067.49 | 1070.22 | 1072.86 | 1075.44 | 1077.96 | 1080.42
x1 = 0.4198 | 1105.54 | 1106.82 | 1108.14 | 1110.73 | 1113.28 | 1115.76 | 1118.18 | 1120.55 | 1122.89
x1 = 0.4847 | 1128.01 | 1129.22 | 1130.5 | 1132.99 | 1135.43 | 1137.83 | 1140.16 | 1142.46 | 1144.71
x1 = 0.5713 | 1153.59 | 1154.71 | 1155.92 | 1158.31 | 1160.66 | 1162.94 | 1165.19 | 1167.4 | 1169.59
x1 = 0.6827 | 1180.46 | 1181.59 | 1182.73 | 1185 | 1187.24 | 1189.45 | 1191.6 | 1193.74 | 1195.84
x1 = 0.7919 | 1202.24 | 1203.1 | 1204.19 | 1206.38 | 1208.54 | 1210.64 | 1212.73 | 1214.77 | 1216.82
x1 = 0.9317 | 1224.05 | 1225.06 | 1226.12 | 1228.23 | 1230.32 | 1232.36 | 1234.37 | 1236.36 | 1238.34
